Read-outs that look alike come from different tables or passages of the source.
How the values were obtained:
Assay type in all cases: biochemical
KRAS G12A = molecular target: T1, KRAS G12A (Homo sapiens, UniProt P01116, G12A); assay: HTRF nucleotide exchange assay (NEA), KRAS G12A
T1 construct: 4 nM KRAS; aa1-188 containing the G12V, G12C, G12A or G12S amino acid substitution
Procedure: (§1) The capacity of compounds to bind KRAS G12D, other KRAS mutants and wildtype RAS isoforms was quantified using a HTRF nucleotide exchange assay. Recombinant human RAS protein (2 nM; aa1-188 KRAS WT, HRAS WT, NRAS WT, or KRAS containing the containing the G12D, G13D or Q61H amino acid substitutions, or 4 nM KRAS; aa1-188 containing the G12V, G12C, G12A or G12S amino acid substitution, an N-terminal 6×His-tag and leader sequence), and 2 nM Europium-labeled anti-6×His antibody were mixed in assay buffer (10 mM HEPES pH7.3, 150 mM NaCl, 5 mM MgCl2, 0.05% BSA, 0.0025% NP-40 and 100 mM KF) with various concentrations of compound in a 384-well plate and a volume of 5 uL. After a 60-minute incubation at room temperature, 5 ul of 200 nM EDA-GTP-DY647P1 (diluted in assay buffer) was added to the plate. Following 30-minute incubation at room temperature, time-resolved fluorescence was measured on a PerkinElmer Envision plate reader. DMSO (0.3%) and unlabeled […] (1 μM) or equivalent tool compound were used to generate the Max and Min assay signals, respectively. Data was analysed using a four-parameter logistic model to calculate IC50 values, with at least two independent replicates were performed for each compound.

KRAS G12C = molecular target: T2, KRAS G12C (Homo sapiens, UniProt P01116, G12C); assay: HTRF nucleotide exchange assay (NEA), KRAS G12C
T2 construct: 4 nM KRAS; aa1-188 containing the G12V, G12C, G12A or G12S amino acid substitution
Outline: (§2)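 Compounds are tested by displacement of a fluorescent GTP analog from His-tagged KRAS aa1-188 (4 nM G12C or G12S; 2 nM G13D or WT). The compounds are first incubated with the protein and the Eu anti-His antibody for 60 min at room temperature. EDA-GTP-DY647P1, added as a 200 nM solution, binds during a further 30 min before time-resolved fluorescence is read.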

KRAS G12D = molecular target: T3, KRAS G12D (Homo sapiens, UniProt P01116, G12D); assay: HTRF nucleotide exchange assay (NEA), KRAS G12D; conditions: recombinant human KRAS G12D aa1-188, 2 nM; lowest class = % inhibition at 10 μM
T3 construct: Recombinant human RAS protein (2 nM)
Outline: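 Compound binding to KRAS G12D was measured by HTRF nucleotide exchange. Recombinant human KRAS G12D (aa1-188, N-terminal 6×His-tag, 2 nM) and 2 nM Europium anti-6×His antibody were combined with compound in 5 uL assay buffer in 384-well plates for 60 minutes at room temperature, then 5 ul of 200 nM EDA-GTP-DY647P1 was added for 30 minutes before time-resolved fluorescence reading.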

KRAS G13D = molecular target: T4, KRAS G13D (Homo sapiens, UniProt P01116, G13D); assay: HTRF nucleotide exchange assay (NEA), KRAS G13D
T4 construct: Recombinant human RAS protein (2 nM); aa1-188 KRAS WT
Procedure: as §1

KRAS WT = molecular target: T5, KRAS WT (Homo sapiens, UniProt P01116); assay: HTRF nucleotide exchange assay (NEA), KRAS WT
T5 construct: Recombinant human RAS protein (2 nM); aa1-188 KRAS WT
Outline: as §2

KRAS Q61H = molecular target: T6, KRAS Q61H (Homo sapiens, UniProt P01116, Q61H); assay: HTRF nucleotide exchange assay (NEA), KRAS Q61H
T6 construct: Recombinant human RAS protein (2 nM); aa1-188 KRAS WT
Procedure: as §1

KRAS G12V = molecular target: T7, KRAS G12V (Homo sapiens, UniProt P01116, G12V); assay: HTRF nucleotide exchange assay (NEA), KRAS G12V
T7 construct: 4 nM KRAS; aa1-188 containing the G12V, G12C, G12A or G12S amino acid substitution
Outline: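 Compound binding to KRAS G12V was measured by HTRF nucleotide exchange. Recombinant human KRAS (aa1-188, G12V, N-terminal 6×His-tag and leader sequence) at 4 nM plus 2 nM Europium-labeled anti-6×His antibody were mixed with compound in assay buffer in 5 uL in 384-well plates. After 60 minutes at room temperature, 5 ul of 200 nM EDA-GTP-DY647P1 was added.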

KRAS G12S = molecular target: T8, KRAS G12S (Homo sapiens, UniProt P01116, G12S); assay: HTRF nucleotide exchange assay (NEA), KRAS G12S
T8 construct: 4 nM KRAS; aa1-188 containing the G12V, G12C, G12A or G12S amino acid substitution
Procedure: as §1

[1] = recombinant human KRAS G13D aa1-188, 2 nM, lowest class = % inhibition at 10 μM
[2] = recombinant human KRAS G12S aa1-188, 4 nM, lowest class = % inhibition at 10 μM

T8 sequence (P01116 1-188 isoform P01116-2 G12S): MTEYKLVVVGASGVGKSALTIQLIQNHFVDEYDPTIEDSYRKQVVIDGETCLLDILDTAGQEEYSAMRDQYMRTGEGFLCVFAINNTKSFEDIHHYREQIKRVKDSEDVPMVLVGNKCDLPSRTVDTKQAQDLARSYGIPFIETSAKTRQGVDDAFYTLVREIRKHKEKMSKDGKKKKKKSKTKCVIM
T7 sequence (P01116 1-188 isoform P01116-2 G12V): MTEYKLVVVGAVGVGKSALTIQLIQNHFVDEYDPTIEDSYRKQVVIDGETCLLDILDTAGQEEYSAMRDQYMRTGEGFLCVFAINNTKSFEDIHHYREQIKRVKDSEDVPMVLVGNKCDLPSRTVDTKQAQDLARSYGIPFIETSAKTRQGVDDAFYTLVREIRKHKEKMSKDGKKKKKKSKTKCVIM
T5 sequence (P01116 1-188 isoform P01116-2): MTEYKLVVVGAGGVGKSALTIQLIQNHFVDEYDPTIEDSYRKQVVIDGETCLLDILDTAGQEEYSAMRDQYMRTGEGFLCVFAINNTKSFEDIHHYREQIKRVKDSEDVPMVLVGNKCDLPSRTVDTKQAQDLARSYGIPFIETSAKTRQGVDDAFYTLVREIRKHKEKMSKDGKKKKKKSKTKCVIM
T1 sequence (P01116 1-188 isoform P01116-2 G12A): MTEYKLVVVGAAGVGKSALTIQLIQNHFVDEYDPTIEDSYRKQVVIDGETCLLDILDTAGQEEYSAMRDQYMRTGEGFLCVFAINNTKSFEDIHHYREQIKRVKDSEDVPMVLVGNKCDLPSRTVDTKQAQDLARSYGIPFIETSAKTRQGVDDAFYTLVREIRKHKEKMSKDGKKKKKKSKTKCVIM
T3 sequence (P01116 1-188 isoform P01116-2 G12D): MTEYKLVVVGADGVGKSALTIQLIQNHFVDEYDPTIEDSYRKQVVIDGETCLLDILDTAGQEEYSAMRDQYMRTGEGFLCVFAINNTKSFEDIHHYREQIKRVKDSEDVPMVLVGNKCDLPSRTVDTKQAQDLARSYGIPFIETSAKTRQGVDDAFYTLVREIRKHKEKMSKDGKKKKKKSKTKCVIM
T2 sequence (P01116 1-188 isoform P01116-2 G12C): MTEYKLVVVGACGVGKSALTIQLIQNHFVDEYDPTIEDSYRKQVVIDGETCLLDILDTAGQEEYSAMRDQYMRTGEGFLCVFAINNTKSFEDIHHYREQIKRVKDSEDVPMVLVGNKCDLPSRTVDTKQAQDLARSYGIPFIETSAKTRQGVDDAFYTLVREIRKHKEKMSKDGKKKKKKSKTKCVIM
T6 sequence (P01116 1-188 isoform P01116-2 Q61H): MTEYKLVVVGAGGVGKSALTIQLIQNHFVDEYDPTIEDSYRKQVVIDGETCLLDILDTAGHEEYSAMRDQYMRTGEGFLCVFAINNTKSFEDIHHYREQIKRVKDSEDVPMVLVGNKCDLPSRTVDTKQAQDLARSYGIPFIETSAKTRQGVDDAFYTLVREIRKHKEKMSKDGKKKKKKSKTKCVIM
T4 sequence (P01116 1-188 isoform P01116-2 G13D): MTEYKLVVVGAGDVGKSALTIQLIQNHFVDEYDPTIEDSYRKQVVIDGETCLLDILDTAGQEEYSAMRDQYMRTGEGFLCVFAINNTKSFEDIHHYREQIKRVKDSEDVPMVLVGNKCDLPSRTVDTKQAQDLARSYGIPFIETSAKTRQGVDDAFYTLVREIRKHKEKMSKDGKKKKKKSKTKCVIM

Row | IC50 (KRAS G12A) | IC50 (KRAS G12C) | IC50 (KRAS G12D) | IC50 (KRAS G13D) | IC50 (KRAS WT) | IC50 (KRAS Q61H) | IC50 (KRAS G12V) | IC50 (KRAS G12S) | IC50 (KRAS G13D; [1]) | IC50 (KRAS G12S; [2]) | SMILES
1 | ≤ 10 nM | ≤ 10 nM | ≤ 10 nM | 100 to 10000 nM | ≤ 10 nM | ≤ 10 nM | ≤ 10 nM | ≤ 10 nM | – | – | C#Cc1c(F)ccc2cc(O)cc(-c3ncc4c(N5CCCCCC5)nc(OC[C@@]56CCCN5C[C@H](F)C6)nc4c3F)c12 (relative stereo) [Example 84, 4-[4-(azepan-1-yl)-8-fluoro-2-[[trans-2-fluoro-1,2,3,5,6,7-hexahydropyrrolizin-8-yl]methoxy]pyrido[4,3-d]pyrimidin-7-yl]-5-ethynyl-6-fluoro-naphthalen-2-ol]
2 | ≤ 10 nM | ≤ 10 nM | ≤ 10 nM | – | ≤ 10 nM | 10 to 100 nM | ≤ 10 nM | 10 to 100 nM | > 10000 nM | – | C#Cc1c(F)ccc2cc(O)cc(-c3ncc4c(NCCCOC)nc(OC[C@@]56CCCN5C[C@H](F)C6)nc4c3F)c12 (relative stereo) [Example 85, 5-ethynyl-6-fluoro-4-[8-fluoro-2-[[trans-2-fluoro-1,2,3,5,6,7-hexahydropyrrolizin-8-yl]methoxy]-4-(3-methoxypropylamino)pyrido[4,3-d]pyrimidin-7-yl]naphthalen-2-ol]
3 | – | 100 to 10000 nM | 10 to 100 nM | 100 to 10000 nM | 100 to 10000 nM | 100 to 10000 nM | 100 to 10000 nM | – | – | – | Oc1cc(-c2ncc3c(N4CC5CNCC5C4)nc(OCC45CCCN4CCC5)nc3c2F)c2ccccc2c1 (stereo not drawn) [Example 1, 4-[4-(2,3,3a,4,6,6a-hexahydro-1H-pyrrolo[3,4-c]pyrrol-5-yl)-8-fluoro-2-(1,2,3,5,6,7-hexahydropyrrolizin-8-ylmethoxy)pyrido[4,3-d]pyrimidin-7-yl]naphthalen-2-ol]
4 | ≤ 10 nM | ≤ 10 nM | ≤ 10 nM | 100 to 10000 nM | 10 to 100 nM | 10 to 100 nM | ≤ 10 nM | 10 to 100 nM | – | – | Oc1cc(-c2ncc3c(N4CCCOCC4)nc(OCC45CCCN4CCC5)nc3c2F)c2ccccc2c1 [Example 3, 4-[8-fluoro-2-(1,2,3,5,6,7-hexahydropyrrolizin-8-ylmethoxy)-4-(1,4-oxazepan-4-yl)pyrido[4,3-d]pyrimidin-7-yl]naphthalen-2-ol]
5 | 100 to 10000 nM | 100 to 10000 nM | 100 to 10000 nM | – | 100 to 10000 nM | – | 100 to 10000 nM | – | > 10000 nM | > 10000 nM | Oc1cc(-c2ncc3c(N4CCOC5(CCCC5)C4)nc(OCC45CCCN4CCC5)nc3c2F)c2ccccc2c1 [Example 4, 4-[8-fluoro-2-(1,2,3,5,6,7-hexahydropyrrolizin-8-ylmethoxy)-4-(6-oxa-9-azaspiro[4.5]-decan-9-yl)pyrido[4,3-d]pyrimidin-7-yl]naphthalen-2-ol]
6 | – | 100 to 10000 nM | 100 to 10000 nM | 100 to 10000 nM | 100 to 10000 nM | 100 to 10000 nM | 100 to 10000 nM | – | – | – | Oc1cc(-c2ncc3c(N4CCC5(CCOC5)CC4)nc(OCC45CCCN4CCC5)nc3c2F)c2ccccc2c1 [Example 8, 4-[8-fluoro-2-(1,2,3,5,6,7-hexahydropyrrolizin-8-ylmethoxy)-4-(2-oxa-8-azaspiro[4.5]decan-8-yl)pyrido[4,3-d]pyrimidin-7-yl]naphthalen-2-ol]
7 | 100 to 10000 nM | 100 to 10000 nM | 100 to 10000 nM | – | 100 to 10000 nM | – | 100 to 10000 nM | 100 to 10000 nM | > 10000 nM | – | Oc1cc(-c2ncc3c(NCC4CCOCC4)nc(OCC45CCCN4CCC5)nc3c2F)c2ccccc2c1 [Example 9, 4-[8-fluoro-2-(1,2,3,5,6,7-hexahydropyrrolizin-8-ylmethoxy)-4-(tetrahydropyran-4-ylmethylamino)pyrido[4,3-d]pyrimidin-7-yl]naphthalen-2-ol]
8 | 100 to 10000 nM | 100 to 10000 nM | 100 to 10000 nM | – | 100 to 10000 nM | – | 100 to 10000 nM | 100 to 10000 nM | > 10000 nM | – | O=C1CN(c2nc(OCC34CCCN3CCC4)nc3c(F)c(-c4cc(O)cc5ccccc45)ncc23)CCN1 [Example 10, 4-[8-fluoro-2-(1,2,3,5,6,7-hexahydropyrrolizin-8-ylmethoxy)-7-(3-hydroxy-1-naphthyl)pyrido[4,3-d]pyrimidin-4-yl]piperazin-2-one]
9 | 100 to 10000 nM | 100 to 10000 nM | 10 to 100 nM | – | 100 to 10000 nM | – | 100 to 10000 nM | 100 to 10000 nM | > 10000 nM | – | O=C1CCN(c2nc(OCC34CCCN3CCC4)nc3c(F)c(-c4cc(O)cc5ccccc45)ncc23)CCN1 [Example 13]
10 | 100 to 10000 nM | 10 to 100 nM | 10 to 100 nM | – | 100 to 10000 nM | – | 10 to 100 nM | 100 to 10000 nM | > 10000 nM | – | O=C1CN(c2nc(OCC34CCCN3CCC4)nc3c(F)c(-c4cc(O)cc5ccccc45)ncc23)CCCN1 [Example 14, 4-[8-fluoro-2-(1,2,3,5,6,7-hexahydropyrrolizin-8-ylmethoxy)-7-(3-hydroxy-1-naphthyl)pyrido[4,3-d]pyrimidin-4-yl]-1,4-diazepan-2-one]
11 | 100 to 10000 nM | 100 to 10000 nM | 100 to 10000 nM | – | 100 to 10000 nM | – | – | 100 to 10000 nM | > 10000 nM | – | CSCCCN(C)c1nc(OCC23CCCN2CCC3)nc2c(F)c(-c3cc(O)cc4ccccc34)ncc12 [Example 27, 4-[8-fluoro-2-(1,2,3,5,6,7-hexahydropyrrolizin-8-ylmethoxy)-4-[methyl(3-methylsulfanylpropyl)amino]pyrido[4,3-d]pyrimidin-7-yl]naphthalen-2-ol]
12 | 100 to 10000 nM | – | 100 to 10000 nM | – | 100 to 10000 nM | – | – | 100 to 10000 nM | > 10000 nM | – | COC(C)CCNc1nc(OCC23CCCN2CCC3)nc2c(F)c(-c3cc(O)cc4ccccc34)ncc12 (stereo not drawn) [Example 32, 4-[8-fluoro-2-(1,2,3,5,6,7-hexahydropyrrolizin-8-ylmethoxy)-4-(3-methoxybutylamino)pyrido[4,3-d]pyrimidin-7-yl]naphthalen-2-ol]
13 | 100 to 10000 nM | – | 100 to 10000 nM | – | 100 to 10000 nM | – | – | – | > 10000 nM | > 10000 nM | COCC1CCN(c2nc(OCC34CCCN3CCC4)nc3c(F)c(-c4cc(O)cc5ccccc45)ncc23)C1 (stereo not drawn) [Example 33, 4-[8-fluoro-2-(1,2,3,5,6,7-hexahydropyrrolizin-8-ylmethoxy)-4-[3-(methoxymethyl)pyrrolidin-1-yl]pyrido [4,3-d]pyrimidin-7-yl]naphthalen-2-ol]
14 | 10 to 100 nM | 10 to 100 nM | 10 to 100 nM | – | 10 to 100 nM | – | 10 to 100 nM | 100 to 10000 nM | > 10000 nM | – | Oc1cc(-c2ncc3c(N4CCCCC4)nc(OCC45CCCN4CCC5)nc3c2F)c2ccccc2c1 [Example 34, 4-[8-fluoro-2-(1,2,3,5,6,7-hexahydropyrrolizin-8-ylmethoxy)-4-(1-piperidyl)pyrido[4,3-d]pyrimidin-7-yl]naphthalen-2-ol]
15 | 100 to 10000 nM | – | 100 to 10000 nM | – | 100 to 10000 nM | – | – | – | > 10000 nM | > 10000 nM | Oc1cc(-c2ncc3c(NC4CCCCCC4)nc(OCC45CCCN4CCC5)nc3c2F)c2ccccc2c1 [Example 36, 4-[4-(cycloheptylamino)-8-fluoro-2-(1,2,3,5,6,7-hexahydropyrrolizin-8-ylmethoxy)pyrido [4,3-d]pyrimidin-7-yl]naphthalen-2-ol]
